Values joined by “and” are separate entries in the source; they are usually repeats but may differ in a detail not shown here. Equal entries are not always repeated.
How the values were obtained:
[1] = test system: C57BL mice; test: Intraperitoneal glucose tolerance test (IPGTT) after single SC injection; assay type: in vivo; conditions: for glucose-lowering effect (IPGTT): single SC, P19 15 nmol/kg, P28 10 or 30 nmol/kg (FIG. 5 legend); for glucose reduction (IPGTT): single SC 100 or 300 nmol/kg
Description: The effect of the fusion proteins on glucose tolerance was determined in C57BL mice (Beijing Vital River Laboratory Animal Technology Co., Ltd.). Each group (6 mice per group) received a single subcutaneous injection of PBS vehicle control, dulaglutide (TRULICITY® brand) (Vetter Pharma-Fertigung GmbH & Co. […] Intraperitoneal glucose tolerance tests (IPGTT) were performed on Day 1, 7, 14, 21, up to 28 after 6 hours fasting with tail vein blood glucose measurements at 0, 15, 30, 60, and 120 minutes.

[2] = test system: DIO mice; test: 28-day study in DIO mice: body weight, blood glucose, food intake; assay type: in vivo; conditions: for weight loss: after 28 days
Description: To further characterize and understand the efficacy of the fusion proteins, body weight and metabolic parameters were measured throughout a 28-day study in DIO mice (Beijing Vital River Laboratory Animal Technology Co., Ltd.).
The effects of all fusion proteins on blood glucose reduction and food intake were determined in the DIO mice described above (FIG. 7A and FIG. 7B). All mice are bled after fasting for 6 hours to measure blood glucose twice weekly.

[3] = cited from earlier work

| Compound | glucose-lowering effect (IPGTT) ([1]; Day 1) | glucose-lowering effect (IPGTT) ([1]; Day 7) | weight loss ([2]; 30 nmol/kg twice weekly) [%] | decrease in body weight compared with dulaglutide ([2]; twice weekly) | half-life in mice [3] | glucose reduction (IPGTT) ([1]; Day 1) | glucose reduction (IPGTT) ([1]; Day 7 and 14) | glucose reduction (IPGTT) ([1]; Day 21) | weight loss ([2]; 10 nmol/kg twice weekly) |
| --- | --- | --- | --- | --- | --- | --- | --- | --- | --- |
| CC[C@H](C)[C@H](NC(=O)[C@H](CC(C)C)NC(=O)[C@H](Cc1c[nH]c2ccccc12)NC(=O)[C@H](CCC(N)=O)NC(=O)[C@@H](NC(=O)[C@H](Cc1ccccc1)NC(=O)[C@H](C)NC(=O)[C@H](CCCCNC(=O)COCCOCCNC(=O)COCCOCCNC(=O)CC[C@H](NC(=O)CCCCCCCCCCCCCCCCCCC(=O)O)C(=O)O)NC(=O)[C@H](CCC(N)=O)NC(=O)[C@H](C)NC(=O)[C@@H](NC(=O)[C@H](CCCCN)NC(=O)[C@H](CC(=O)O)NC(=O)[C@H](CC(C)C)NC(=O)C(C)(C)NC(=O)[C@@H](NC(=O)[C@H](CO)NC(=O)[C@H](Cc1ccc(O)cc1)NC(=O)[C@H](CC(=O)O)NC(=O)[C@H](CO)NC(=O)[C@@H](NC(=O)[C@H](Cc1ccccc1)NC(=O)[C@@H](NC(=O)CNC(=O)[C@H](CCC(=O)O)NC(=O)C(C)(C)NC(=O)[C@@H](N)Cc1ccc(O)cc1)[C@@H](C)O)[C@@H](C)O)[C@@H](C)CC)[C@@H](C)CC)C(C)C)C(=O)N[C@@H](C)C(=O)NCC(=O)NCC(=O)N1CCC[C@H]1C(=O)N[C@@H](CO)C(=O)N[C@@H](CO)C(=O)NCC(=O)N[C@@H](C)C(=O)N1CCC[C@H]1C(=O)N1CCC[C@H]1C(=O)N1CCC[C@H]1C(=O)N[C@@H](CO)C(N)=O [P19, Tirzepatide, reference compound] | showed glucose-lowering effects | lost all effects | 26 | more significant dose-dependent decrease in body weight | less than one day |  |  |  |  |
| dulaglutide [reference compound] |  |  | 16.6 |  |  | very strong glucose reduction | rapidly waned | completely lost effect | 10.9% and 11% |

Reference: patent US20250270274A1, “SUPER LONG-LASTING GLP1 OR GLP1/GIP ANALOGUE DRUG FOR TYPE-2 DIABETES AND OBESITY” (Serpentide Inc., priority 2024, published 2025)
